Source: patent US12427146B2, “C-terminal SRC kinase inhibitors” (INVENTISBIO CO., LTD., priority 2018, dated 2025)

Columns and labels:
LCK protein = LCK protein (Homo sapiens (Human), UniProt P06239); assay: LCK Inhibition Assay; format: biochemical
In short: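 Recombinant LCK (0.50 nM) preincubated 30 min at RT with compound and FLPeptide4 (2 μM) in 50 mM HEPES pH 7.5, 10 mM MgCl2, Brij-35, DTT, BSA; reaction started with ATP (400 μM solution added), run 90 min at 25 °C, EDTA-stopped. Phospho/non-phospho peptide separated by mobility shift; IC50 from % inhibition of conversion, 11-point 1:3 series.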

CSK protein = CSK protein (Homo sapiens (Human), UniProt P41240); assay: CSK Inhibition Assay; format: biochemical
Sequence of CSK protein (P41240 whole entry): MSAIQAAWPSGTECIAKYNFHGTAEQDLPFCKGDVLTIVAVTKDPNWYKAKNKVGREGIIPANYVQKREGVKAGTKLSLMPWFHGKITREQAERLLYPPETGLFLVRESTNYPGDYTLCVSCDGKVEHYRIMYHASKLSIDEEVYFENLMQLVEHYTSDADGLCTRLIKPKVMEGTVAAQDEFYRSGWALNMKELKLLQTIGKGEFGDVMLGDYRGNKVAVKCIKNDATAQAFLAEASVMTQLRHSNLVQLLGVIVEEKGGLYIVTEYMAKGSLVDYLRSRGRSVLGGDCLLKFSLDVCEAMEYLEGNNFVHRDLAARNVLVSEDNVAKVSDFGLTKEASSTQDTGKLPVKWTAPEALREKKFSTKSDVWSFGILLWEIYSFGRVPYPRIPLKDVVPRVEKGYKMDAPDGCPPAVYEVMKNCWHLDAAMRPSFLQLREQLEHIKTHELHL
In short: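 Compounds, 11-point 1:3 dilutions in DMSO, were preincubated 30 min at RT with CSK and fluorescent peptide substrate, then the reaction was started with ATP (4 μM solution) and run 90 min at 25 °C before EDTA stop. Phospho-peptide conversion was read by mobility-shift separation (Caliper EZ Reader II) and converted to % inhibition for IC50.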

Sequence of LCK protein (P06239 whole entry): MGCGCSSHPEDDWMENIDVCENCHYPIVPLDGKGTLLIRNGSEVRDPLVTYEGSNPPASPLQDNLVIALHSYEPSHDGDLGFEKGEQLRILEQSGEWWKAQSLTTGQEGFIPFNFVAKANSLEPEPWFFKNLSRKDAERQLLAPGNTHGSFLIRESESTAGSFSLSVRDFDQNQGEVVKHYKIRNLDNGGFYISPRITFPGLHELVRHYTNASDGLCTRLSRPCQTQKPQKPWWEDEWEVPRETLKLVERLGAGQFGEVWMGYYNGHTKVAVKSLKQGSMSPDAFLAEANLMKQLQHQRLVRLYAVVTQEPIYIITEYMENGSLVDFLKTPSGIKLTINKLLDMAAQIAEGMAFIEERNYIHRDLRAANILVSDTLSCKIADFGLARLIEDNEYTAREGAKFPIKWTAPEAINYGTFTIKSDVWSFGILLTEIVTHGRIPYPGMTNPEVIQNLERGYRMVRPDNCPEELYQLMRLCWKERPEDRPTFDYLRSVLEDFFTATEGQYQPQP

| SMILES | IC50 (LCK protein) [nM] | IC50 (CSK protein) [nM] |
| --- | --- | --- |
| CC(C)Oc1ccn2c(-c3ccnc(N)n3)c(-c3cccc(NS(=O)(=O)c4c(F)cccc4F)c3F)nc2c1 [Compound 104] | > 1000 | 134 |
| Cc1ccc(-c2nc(-c3cccc(NS(=O)(=O)c4c(Cl)ccc(C)c4Cl)c3F)c(-c3ccnc(NC4CC4)n3)s2)nn1 [Compound 175] | > 1000 | 6.5 |
| CNc1nccc(-c2sc(N3CCC(F)(F)C3)nc2-c2cccc(NS(=O)(=O)c3c(F)cccc3F)c2F)n1 [Compound 162] | 100 to 1000 | 6.4 |
| CNc1nccc(-c2sc(-c3cncc(F)c3)nc2-c2cccc(NS(=O)(=O)c3c(F)ccc(C)c3F)c2F)n1 [Compound 53] | > 1000 | 15.6 |
| CCNc1nccc(-c2sc(-c3ccc(F)cn3)nc2-c2cccc(NS(=O)(=O)c3c(F)ccc(C)c3F)c2F)n1 [Compound 56] | > 1000 | 47 |
| CNc1nccc(-c2sc(-c3cncc(F)c3)nc2-c2cc(OC)cc(NS(=O)(=O)c3c(F)cccc3F)c2F)n1 [Compound 72] | > 1000 | 26.1 |
| O=S(=O)(Nc1cccc(-c2nc(-c3ccccc3)sc2-c2ccnc(Nc3cccnc3)n2)c1F)c1c(F)cccc1F [Compound 42] | 100 to 1000 | 37.7 |
| Cc1ncc(-c2nc(-c3cccc(NS(=O)(=O)c4c(Cl)ccc(C)c4Cl)c3F)c(-c3ccnc(NC4CC4)n3)s2)cn1 [Compound 151] | > 1000 | 4.8 |
| CNc1nccc(-c2sc(-c3cccc(F)c3)nc2-c2cccc(NS(=O)(=O)c3c(F)ccc(C)c3F)c2F)n1 [Compound 71] | > 1000 | 41.8 |
| Cc1ncc(-c2nc(-c3cccc(NS(=O)(=O)c4c(Cl)cccc4Cl)c3F)c(-c3ccnc(NC4CC4)n3)s2)cn1 [Compound 149] | > 1000 | 4.5 |
| Cc1ncc(-c2nc(-c3cccc(NS(=O)(=O)c4c(F)ccc(C)c4F)c3F)c(-c3ccnc(NCCO)n3)s2)cn1 [Compound 155] | > 1000 | 16.6 |
| Cc1ccc(Cl)c(S(=O)(=O)Nc2cccc(-c3nc(N4CCCCC4)sc3-c3ccnc(NC4CC4)n3)c2F)c1Cl [Compound 179] | > 1000 | 6.2 |
| O=S(=O)(Nc1cccc(-c2nc(-c3cncc(F)c3)sc2-c2ccnc(NCCO)n2)c1F)c1c(F)cccc1F [Compound 66] | > 1000 | 19.6 |
| Cc1ccc(-c2nc(-c3cccc(NS(=O)(=O)c4c(F)cccc4F)c3F)c(-c3ccnc(N)n3)s2)nc1 [Compound 43] | 100 to 1000 | 37.6 |
| CNc1nccc(-c2sc(N(C)CC(F)(F)F)nc2-c2cccc(NS(=O)(=O)c3c(F)cccc3F)c2F)n1 [Compound 181] | 100 to 1000 | 7.8 |
| Cc1ccc(-c2nc(-c3cccc(NS(=O)(=O)c4c(F)ccc(C)c4F)c3F)c(-c3ccnc(NCCO)n3)s2)nn1 [Compound 174] | > 1000 | 17.5 |
| Nc1nccc(-c2c(-c3cccc(NS(=O)(=O)c4c(F)cccc4F)c3F)nc(-c3ccccc3)n2O)n1 [Compound 84] | > 1000 | 133 |
| O=S(=O)(Nc1cccc(-c2nc(-c3ccccc3)sc2-c2ccnc(Nc3ccc(N4CCOCC4)nc3)n2)c1F)c1c(F)cccc1F [compound 3] | < 100 | 13.4 |
| Nc1nccc(-c2sc(-c3cccc(F)c3)nc2-c2cccc(NS(=O)(=O)c3c(F)cccc3F)c2F)n1 [Compound 15] | > 1000 | 51.4 |
| CNc1nccc(-c2sc(N3CCCC3=O)nc2-c2cccc(NS(=O)(=O)c3c(F)cccc3F)c2F)n1 [Compound 113] | > 1000 | 23.8 |
| COc1ccc(-c2nc(-c3cccc(NS(=O)(=O)c4c(F)cccc4F)c3F)c(-c3ccnc(N)n3)s2)nc1 [Compound 30] | 100 to 1000 | 41 |
| Nc1nccc(-c2sc(-c3cncc(F)c3)nc2-c2cccc(NS(=O)(=O)c3c(Cl)cccc3Cl)c2F)n1 [Compound 62] | > 1000 | 9.4 |
| CNc1nccc(-c2sc(N3CCCC3=O)nc2-c2cccc(NS(=O)(=O)c3c(F)ccc(C)c3F)c2F)n1 [Compound 124] | > 1000 | 14.9 |
